Molecules are shown by their SMILES.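 Five compound concentrations were applied to cells in 96-well plates for 48 hours; endpoints were derived by simple linear interpolation of the resulting dose-response curve. Here, GI50 denotes the concentration required for 50% inhibition of growth. TGI: total growth inhibition.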 Some results are limits rather than exact numbers.

Common to all, as to experiment: inhibition of tumour cell growth, NCI panel, 48 h
Assay [1] relates to BT-549 breast.
In assay [2] the test system is NCI/ADR-RES ovarian.
The test system of assay [3] is PC-3 prostate.
Assay [4] deals with T-47D breast.

Turning to `COc1ccc(/C=C2\CCCC3=C2NC(C)=NC3c2ccc(OC)c(OC)c2)cc1OC` (centres undefined), the GI50 in assay [1] is 23.7 µM; in assay [2], 15.2 µM; in assay [3], 37.4 µM; in assay [4], 14.7 µM. For the same compound, the TGI in assay [1], in assay [2], in assay [3] and in assay [4] was greater than 100 µM each time.
Take `Fc1ccc(Nc2nccc(-c3c(-c4ccc(C(F)(F)F)cc4)nn4ncccc34)n2)cc1F`: the GI50 in assay [1], in assay [2], in assay [3] and in assay [4] was greater than 25 µM each time. For the same compound, the TGI in assay [1], in assay [2], in assay [3] and in assay [4] was greater than 25 µM each time.
With `CC(=O)OC1C2(CC3N4C(=O)C5(CO)SSC4(CC31O)C(=O)N5C)OC(C)C(C)(C)C2=O` (centres undefined), the GI50 is 0.146 µM in assay [1], less than 0.042 µM in assay [2], 0.148 µM in assay [3] and less than 0.01 µM in assay [4]. Further, the TGI in assay [1] was determined as 0.728 µM; in assay [2] it was 0.879 µM; in assay [3], 0.588 µM; in assay [4] it was 0.0782 µM.
As for `COc1ccc2c(c1)C(=O)c1c-2n(CCCN2CCOCC2)c(=O)c2ccccc12`, the GI50 in assay [1] is 2.55 µM; in assay [2], 3.8 µM; in assay [3], 8.67 µM; in assay [4] it was 1.55 µM. The TGI is 13.6 µM in assay [1], greater than 93.1 µM in assay [2], greater than 100 µM in assay [3] and 7.41 µM in assay [4].
Take `Cc1c(C)c2ccc(OC/C=C3\CCC(=O)O3)cc2oc1=O`: the GI50 was 15.2 µM in assay [1], 16.9 µM in assay [2], 13.4 µM in assay [3] and 14.5 µM in assay [4]. For the same compound, the TGI turned out to be 28.9 µM in assay [1], 35.7 µM in assay [2], 31 µM in assay [3] and 47.8 µM in assay [4].
On to `Fc1ccc(Nc2nc(NCCNc3ccnc4cc(Cl)ccc34)nc(N3CCOCC3)n2)cc1`, for which the GI50 was 8.67 µM in assay [1], 9.36 µM in assay [2], 4.87 µM in assay [3] and 10.9 µM in assay [4]. The TGI in assay [1] came to 22 µM; in assay [2], 26.5 µM; in assay [3], 18.5 µM; in assay [4], 27.4 µM.
For `CCN1C(=O)N(CC)C2C1NN=c1s/c(=C3\C(=O)N(C)c4ccccc43)c(=O)n12` (centres undefined), the GI50 was 1.39 µM in assay [1], 0.729 µM in assay [2], 1.14 µM in assay [3] and 0.632 µM in assay [4]. Also, the TGI in assay [1] is 37.9 µM; in assay [2], 38.7 µM; in assay [3], greater than 100 µM; in assay [4], greater than 100 µM.
Turning to `COc1ccccc1-c1c(C)nn2c(NCc3ccccn3)cc(C)nc12`, the GI50 in assay [1] is greater than 37.3 µM; in assay [2], 24.5 µM; in assay [3], 30.6 µM; in assay [4], 1.04 µM. For the same compound, the TGI in assay [1], in assay [2], in assay [3] and in assay [4] was greater than 50 µM in each case.
Consider `Cc1ccc2c(c1)ncn2-c1ncnc2c1CC(C)c1ccccc1N2C` (centres undefined), for which the GI50 in assay [1] is 0.314 µM; in assay [2], 0.058 µM; in assay [3] it was 0.0561 µM; in assay [4], 2.17 µM. The TGI worked out at 8.25 µM in assay [1], 30.4 µM in assay [2], 17.7 µM in assay [3] and 8.53 µM in assay [4].
On to `CCOC(=O)N1CCN(S(=O)(=O)c2oc(-c3ccc(Cl)cc3)nc2C#N)CC1`, for which the GI50 in assay [1] is 2.22 µM; in assay [2], 12.2 µM; in assay [3] it was 2.24 µM; in assay [4], 2.29 µM. Moreover, the TGI in assay [1] worked out at 5.6 µM; in assay [2], 47.6 µM; in assay [3], 5.77 µM; in assay [4] it was 5.94 µM.
As for `COc1ccc(-c2ccc(/C=N/n3c(COc4ccc(Cl)cc4)n[nH]c3=S)o2)c([N+](=O)[O-])c1`, the GI50 in assay [1] was 13.6 µM; in assay [2], 15.8 µM; in assay [3], 12.2 µM; in assay [4] it was 9.57 µM. Also, the TGI in assay [1] is 50 µM; in assay [2], 50 µM; in assay [3] it was 35.9 µM; in assay [4] it was 82.4 µM.
On to `C=C[C@]1(C)C=C2C(=O)[C@@]3(O)OC[C@@]4(CCCC(C)(C)C43O)C2(O)C(O)C1` (some centres undefined), for which the GI50 in assay [1] is 3.47 µM; in assay [2], 2.33 µM; in assay [3], 14.9 µM; in assay [4] it was 0.759 µM. Also, the TGI in assay [1] is 13.2 µM; in assay [2] it was 6.62 µM; in assay [3], 32.7 µM; in assay [4] it was 2.43 µM.
`O=[N+]([O-])c1ccc(CS(=O)Cc2ccccc2)cc1` (centres undefined): the TGI in assay [1], in assay [2], in assay [3] and in assay [4] was greater than 100 µM each time.
For the compound `CCOC(=O)c1cnn(-c2ccnc3c(C(F)(F)F)cccc23)c1N`, the GI50 in assay [1] is 70.7 µM; in assay [2] it was greater than 100 µM; in assay [3], greater than 100 µM; in assay [4], greater than 100 µM. Also, the TGI in assay [1], in assay [2], in assay [3] and in assay [4] was greater than 100 µM each time.
Regarding `COc1cnc2c(c1)C(=O)c1c-2n(CCCN2CCCC2)c(=O)c2cc(Cl)ccc12`, the GI50 in assay [1] is 3.8 µM; in assay [2], 0.222 µM; in assay [3], 0.859 µM; in assay [4], 1.21 µM. In addition, the TGI was 12.9 µM in assay [1], 8.86 µM in assay [2], 9.48 µM in assay [3] and 18.9 µM in assay [4].
As to `CCOC(=O)c1c(C)n(Cc2ccc(Cl)cc2Cl)c2c1cc1oc(=O)c(=O)n3c(Cc4ccccc4)nc2c13`, the GI50 was 2.55 µM in assay [1], 5.46 µM in assay [2], 2.06 µM in assay [3] and 4.9 µM in assay [4]. Besides, the TGI in assay [1] turned out to be 6.4 µM; in assay [2] it was 18.3 µM; in assay [3], 5.01 µM; in assay [4] it was 22.2 µM.

For the origin of these results see PubChem BioAssay (NCI).
